{
  "source": "patent US10844062B2",
  "about": "“Pyridine derivative inhibiting RAF kinase and vascular endothelial growth factor receptor, method for preparing same, pharmaceutical composition containing same, and use thereof” (SAMJIN PHARMACEUTICAL CO., LTD., priority 2016, dated 2020)",
  "data": [
    {"tested_on": "LS513 KRAS G12V (colon)", "assay": "MTT assay", "assay_type": "cell-based", "settings": "Homo sapiens, LS-513, 72 h, Table 4; 3 days incubation; read-out: MTT assay IC50 KRAS mutant (Colon) LS513 KRAS G12V", "description": "MTT assay is frequently used for the purpose of primary screening for the sensitivity of anticancer agents and to examine cytotoxicity. When cancer cells are treated with varying concentrations of any anticancer agent for a predetermined time to induce death of the cells and are then treated with MTT, and when the formation of formazan is measured, the concentration of the anticancer agent, at which about 50% of the cells survive, can be determined. This concentration value is called IC50. IC50 values differ between drugs, and thus can be characteristic of the drugs. Using this method, the effects of anticancer agents against cell proliferation can be quantitatively compared. Thus, in order to measure the cytotoxicity of samples, MTT assay was performed using CellTiter 96 Non-radioactive Cell Proliferation Assay Kit (Promega).\nCells in a cell suspension were counted with a hematocytometer, and then 200 μL of the cell suspension was added to each well of a 96 well plate at a desired concentration (cell amount determined depending on a cell line). After cell seeding, the cells were incubated in a CO2 incubator at 37° C. overnight. After one day of cell stabilization, the cells were treated with desired concentrations of the compounds. The cells were incubated in a CO2 incubator at 37° C. for 3 days, and then the sample was removed, and 200 μL of MTT solution was added to each well. After 2 hours of incubation, the MTT dilution was carefully shaken, and 200 μL of DMSO was added to each well, followed by shaking with a plate shaker for 60 minutes.", "units": {"IC50": "nM"}, "values": [
      {"compound": "Cc1cccc(C(=O)Nc2ccc(F)c(Nc3ncccc3-c3ncnc4[nH]cnc34)c2F)c1", "note": "[Example 47, N-(3-(3-(9H-Purin-6-Yl)Pyridin-2-Ylamino)-2,4-Difluorophenyl)-3-Methylbenzamide]", "IC50": "> 10000"},
      {"compound": "O=C(Nc1ccc(F)c(Nc2ncccc2-c2ncnc3[nH]cnc23)c1F)c1ccco1", "note": "[Example 6, N-(3-(3-(9H-purin-6-yl)pyridine-2-ylamino)-2,4-difluorophenyl)furan-2-carboxamide]", "IC50": "> 10000"},
      {"compound": "COc1ccc(NC(=O)c2cccc(C(C)(C)C#N)c2)cc1Nc1ncccc1-c1ncnc2[nH]cnc12", "note": "[Example 152, N-3-[(3-(9H-purin-6-yl)pyridin-2-yl)amino]-4-methoxyphenyl-3-(2-cyanopropan-2-yl)benzamide]", "IC50": 2960},
      {"compound": "O=C(Nc1cc(Nc2ncccc2-c2ncnc3[nH]cnc23)ccc1F)c1cc(Br)cc(C(F)(F)F)c1", "note": "[Example 158, N-5-[(3-(9H-purin-6-yl)pyridin-2-yl)amino]-2-fluorophenyl-3-bromo-5-(trifluoromethyl)benzamide]", "IC50": 283},
      {"compound": "O=C(Nc1ccc(F)c(Nc2ncccc2-c2ncnc3[nH]cnc23)c1F)N1CCN(c2ccc(F)cc2)C1=O", "note": "[Example 81, N-(3-(3-(9H-purin-6-yl)pyridin-2-ylamino)-2,4-difluorophenyl)-3-(4-fluorophenyl)-2-oxoimidazolidine-1-carboxamide]", "IC50": 388},
      {"compound": "CC(C)(C#N)c1cc(F)cc(C(=O)Nc2cc(Nc3ncccc3-c3ncnc4[nH]cnc34)ccc2Cl)c1", "note": "[Example 127, N-5-[(3-(9H-purin-6-yl)pyridin-2-yl)amino]-2-chlorophenyl-3-(2-cyanopropan-2-yl)-5-fluorobenzamide]", "IC50": 591},
      {"compound": "O=C(Nc1ccc(F)c(Nc2ncccc2-c2ncnc3[nH]cnc23)c1F)c1ccno1", "note": "[Example 7, N-(3-(3-(9H-purin-6-yl)pyridin-2-ylamino)-2,4-difluorophenyl)isoxazole-5-carboxamide]", "IC50": "> 10000"},
      {"compound": "CCN1CCN(Cc2ccc(C(=O)Nc3ccc(F)c(Nc4ncccc4-c4ncnc5[nH]cnc45)c3F)cc2C(F)(F)F)CC1", "note": "[Example 3, N-(3-(3-(9H-purin-6-yl)pyridin-2-ylamino)-2,4-difluorophenyl)-4-((4-ethylpiperazin-1-yl)methyl)-3-(trifluoromethyl)benzamide]", "IC50": 4030},
      {"compound": "O=C(Nc1ccc(F)c(Nc2ncccc2-c2ncnc3[nH]cnc23)c1F)c1ccccc1C(F)(F)F", "note": "[Example 26, N-(3-(3-(9H-purin-6-yl)pyridin-2-ylamino)-2,4-difluorophenyl)-2-(trifluoromethyl)benzamide]", "IC50": "> 10000"},
      {"compound": "COc1cc(Nc2ncccc2-c2ncnc3[nH]cnc23)ccc1NC(=O)c1cccc(C(F)(F)F)c1", "note": "[Example 80, N-2-Methoxy-4-[3-(9H-Purin-6-Yl)Pyridin-2-Ylamino]Phenyl-3-Trifluoromethylbenzamide]", "IC50": "> 10000"},
      {"compound": "Cc1cccc(C(=O)Nc2cc(Nc3ncccc3-c3ncnc4[nH]cnc34)ccc2F)c1", "note": "[Example 145, N-5-[(3-(9H-purin-6-yl)pyridin-2-yl)amino]-2-fluorophenyl-3-methylbenzamide]", "IC50": 1030},
      {"compound": "O=C(Cc1cccc(C(F)(F)F)c1)Nc1cc(Nc2ncccc2-c2ncnc3[nH]cnc23)ccc1F", "note": "[Example 76, N-2-Fluoro-5-[3-(9H-Purin-6-Yl)Pyridin-2-Ylamino]Phenyl-2-(3-Trifluoromethylphenyl)Acetamide]", "IC50": 426},
      {"compound": "CC(C)(C#N)c1cccc(C(=O)Nc2ccc(F)c(Nc3ncccc3-c3ncnc4[nH]ccc34)c2F)c1", "note": "[Example 85, N-(3-(3-(7H-Pyrrolo[2,3-d]Pyrimidin-4-Yl)Pyridin-2-Ylamino)-2,4-Difluorophenyl)-3-(2-Cyanopropan-2-Yl)Benzamide]", "IC50": 676},
      {"compound": "CC(C)(C#N)c1cccc(C(=O)Nc2cc(Nc3ncccc3-c3ncnc4[nH]ccc34)c(F)cc2F)c1", "note": "[Example 84, N-(5-(3-(7H-Pyrrolo[2,3-d]Pyrimidin-4-Yl)Pyridin-2-Ylamino)-2,4-Diflurophenyl)-3-(2-Cyanopropan-2-Yl)Benzamide]", "IC50": 118},
      {"compound": "O=C(Nc1ccc(F)c(Nc2ncccc2-c2ncnc3[nH]cnc23)c1F)c1cc(F)cc(C(F)(F)F)c1", "note": "[Example 28, N-(3-(3-(9H-purin-6-yl)pyridin-2-ylamino)-2,4-difluorophenyl)-3-fluoro-5-(trifluoromethyl)benzamide]", "IC50": 958},
      {"compound": "CC(C)(C#N)c1cccc(C(=O)Nc2ccc(F)c(Nc3ncccc3-c3ncnc4[nH]cnc34)c2)c1", "note": "[Example 49, N-(3-(3-(9H-Purin-6-Yl)Pyridin-2-Ylamino)-4-Fluorophenyl)-3-(2-Cyanopropan-2-Yl)Benzamide]", "IC50": 192},
      {"compound": "O=C(Nc1cccc(Nc2ncccc2-c2ncnc3[nH]cnc23)c1)c1cccc(Cl)c1", "note": "[Example 48, N-(3-(3-(9H-Purin-6-Yl)Pyridin-2-Ylamino)Phenyl)-3-Chlorobenzamide]", "IC50": 2480},
      {"compound": "CN(C)c1cccc(C(=O)Nc2ccc(F)c(Nc3ncccc3-c3ncnc4[nH]cnc34)c2F)c1", "note": "[Example 46, N-(3-(3-(9H-Purin-6-Yl)Pyridin-2-Ylamino)-2,4-Difluorophenyl)-3-(Dimethylamino)Benzamide]", "IC50": 7090},
      {"compound": "CS(=O)(=O)c1cccc(C(=O)Nc2cc(Nc3ncccc3-c3ncnc4[nH]cnc34)ccc2F)c1", "note": "[Example 126, N-5-[(3-(9H-purin-6-yl)pyridin-2-yl)amino]-2-fluorophenyl-3-(methylsulfonyl)benzamide]", "IC50": 1110},
      {"compound": "CC(C)(C#N)c1cccc(C(=O)Nc2cc(Nc3ncccc3-c3ncnc4[nH]cnc34)c(F)cc2F)c1", "note": "[Example 32, N-(5-(3-(9H-Purin-6-Yl)Pyridin-2-Ylamino)-2,4-Difluorophenyl)-3-(2-Cyanopropan-2-Yl)Benzamide]", "IC50": 173},
      {"compound": "O=C(Nc1ccc(F)c(Nc2ncccc2-c2ncnc3[nH]cnc23)c1)c1cccc(C(F)(F)F)c1", "note": "[Example 50, N-(3-(3-(9H-Purin-6-Yl)Pyridin-2-Ylamino)-4-Fluorophenyl)-3-(Trifluoromethyl)Benzamide]", "IC50": 221},
      {"compound": "O=C(Nc1ccc(F)c(Nc2ncccc2-c2ncnc3[nH]cnc23)c1F)c1cccs1", "note": "[Example 5, N-(3-(3-(9H-purin-6-yl)pyridin-2-ylamino)-2,4-difluorophenyl)thiophene-2-carboxamide]", "IC50": "> 10000"},
      {"compound": "O=C(Nc1ccc(F)c(Nc2ncccc2-c2ncnc3[nH]cnc23)c1F)c1ccc([N+](=O)[O-])cc1", "note": "[Example 52, N-(3-(3-(9H-Purin-6-Yl)Pyridin-2-Ylamino)-2,4-Difluorophenyl)-4-Nitrobenzamide]", "IC50": "> 10000"},
      {"compound": "O=C(Nc1cc(Nc2ncccc2-c2ncnc3[nH]cnc23)ccc1F)c1cc(Cl)cc(OC(F)(F)F)c1", "note": "[Example 142, N-5-[(3-(9H-purin-6-yl)pyridin-2-yl)amino]-2-fluorophenyl-3-chloro-5-(trifluoromethoxy)benzamide]", "IC50": 128},
      {"compound": "COc1ccc(C(=O)Nc2cc(Nc3ncccc3-c3ncnc4[nH]cnc34)ccc2F)cc1C(F)(F)F", "note": "[Example 134, N-5-[(3-(9H-purin-6-yl)pyridin-2-yl)amino]-2-fluorophenyl-4-methoxy-3-(trifluoromethyl)benzamide]", "IC50": 72},
      {"compound": "CC1CCN(c2ccc(C(=O)Nc3ccc(F)c(Nc4ncccc4-c4ncnc5[nH]cnc45)c3F)cc2C(F)(F)F)CC1", "note": "[Example 15, N-(3-(3-(9H-purin-6-yl)pyridin-2-ylamino)-2,4-difluorophenyl)-4-(4-methylpeperidin-1-yl)-3-(trifluoromethyl)benzamide]", "IC50": 1670}
    ]}
  ]
}
